Data as given in patent US5869609A, “G protein coupled glutamate receptors” (priority 1995, dated 1999).
Like-named read-outs stand apart in the source and are kept apart here.

Assays:
[1] = molecular target: T1, GluG R encoded by clone 45-A (Rattus norvegicus, UniProt P23385); format: cell-based
T1 construct: expressed in transfected cells; host or cells: Xenopus oocytes injected with RNA transcribed in vitro from clone 45-A

[2] = molecular target: T1, GluG R encoded by clone 45-A; experiment: Voltage clamp assay of inhibition of glutamic acid-evoked current in injected oocytes; format: cell-based; settings: 1 mM DL-AP3; 10 μM glutamic acid; read-out: current evoked by 10 μM glutamic acid, % of the control
Protocol: Voltage clamp assays were also carried out on injected oocytes to measure the inhibition by the putative glutamate G protein coupled receptor antagonist, 2-amino-3-phosphonopropionic acid (AP3).

[3] = tested on: rat G protein coupled glutamate receptor; experiment: Competition of quisqualate with tritiated glutamic acid on membranes of transfected BHK cells; format: binding; settings: membranes of BHK 570 and BHK TK^- ts13 clones
Protocol: Transfected cell lines expressing GluG R were identified by the binding of ^3 H-glutamate to membrane preparations from transfected cells. Cell lines expressing low to moderate levels of GluG R are used to set up functional screening assays.
Clones of BHK 570 and BHK TK^- ts13 cells expressing the rat G protein coupled glutamate receptor cDNA were plated in two or three 150 mm maxi-plates culture dishes and were grown to confluency. The cells from each plate were scraped in 5 ml of PBS (phosphate buffered saline, Sigma Chemical Co., St. Louis, Mo.), which was pre-chilled to 4° C. The cells were removed to a chilled centrifuged tube, and the plates were each rinsed with 5 ml of chilled PBS and pooled with the cells. The chilled tubes were spun at 1,000 rpm for two minutes, and the supernatant was discarded. The cells were frozen at either -70° C. or on dry ice. In some cases, the cells were left overnight at -70° C. […] The filters were dried in a microwave oven and counted in a […].
Protein determinations were carried out using a Coomassie Blue-based assay from Pierce Chemical Company (Rockford, Ill.) under conditions set forth by the manufacturer. One hundred microliters of undiluted cell homogenate or BSA standard was added to 2 ml of reagent and the optical density was measured at 595 nm. […]

GluG R = experiment: Voltage-clamp recording of oocytes injected with RNA from positive pools of the cerebellum library; format: cell-based, rat; settings: oocyte injected with RNA from subfractionated pool of 14,000 colonies, approximately 100 ng RNA
Protocol: Plasmid DNA prepared from each of the 10 pools of 100,000 clones, which in total represented one sublibrary of one million clones of the cerebellum cDNA library, was purified by cesium chloride gradient ultracentrifugation. The DNA was transcribed in vitro with T7 RNA polymerase (Pharmacia) in the presence of capped nucleotide (GpppG, Pharamcia). […] The transcription reaction tubes were set up by adding 12 μl of 5× transcription buffer (Stratagene Cloning Systems, La Jolla, Calif.), 3 μl each of 10 mM ATP, CTP, GTP, and UTP, 6 μl of 10 mM GpppG (Pharmacia), 6 μl of 1 mg/ml BSA, 3 μl of 200 mM DTT, 1.5 μl of 40 U/μl RNasin (ProMega Biotech, Madison, Wis.), 8.5 μl of water, 10 μl of cDNA containing 5 to 10 μg DNA, and 1 μl of 70 U/μl T7 RNA polymerase. […] Forty microliters of water was added to the radiolabeled reactions, and 1 μl was removed from each sample and counted to determine total counts. […] The samples were centrifuged to collect the RNA and the RNA pellets were counted to determine the counts incorporated into RNA. […]
The RNA from each of the 10 sublibraries were injected into oocytes as described above and translation was allowed for four days. Expression of GluG R activity was assessed by voltage-clamp assay as described above. […]

[4] = 100 μM, saturating concentration

T1 sequence (P23385 19-1199): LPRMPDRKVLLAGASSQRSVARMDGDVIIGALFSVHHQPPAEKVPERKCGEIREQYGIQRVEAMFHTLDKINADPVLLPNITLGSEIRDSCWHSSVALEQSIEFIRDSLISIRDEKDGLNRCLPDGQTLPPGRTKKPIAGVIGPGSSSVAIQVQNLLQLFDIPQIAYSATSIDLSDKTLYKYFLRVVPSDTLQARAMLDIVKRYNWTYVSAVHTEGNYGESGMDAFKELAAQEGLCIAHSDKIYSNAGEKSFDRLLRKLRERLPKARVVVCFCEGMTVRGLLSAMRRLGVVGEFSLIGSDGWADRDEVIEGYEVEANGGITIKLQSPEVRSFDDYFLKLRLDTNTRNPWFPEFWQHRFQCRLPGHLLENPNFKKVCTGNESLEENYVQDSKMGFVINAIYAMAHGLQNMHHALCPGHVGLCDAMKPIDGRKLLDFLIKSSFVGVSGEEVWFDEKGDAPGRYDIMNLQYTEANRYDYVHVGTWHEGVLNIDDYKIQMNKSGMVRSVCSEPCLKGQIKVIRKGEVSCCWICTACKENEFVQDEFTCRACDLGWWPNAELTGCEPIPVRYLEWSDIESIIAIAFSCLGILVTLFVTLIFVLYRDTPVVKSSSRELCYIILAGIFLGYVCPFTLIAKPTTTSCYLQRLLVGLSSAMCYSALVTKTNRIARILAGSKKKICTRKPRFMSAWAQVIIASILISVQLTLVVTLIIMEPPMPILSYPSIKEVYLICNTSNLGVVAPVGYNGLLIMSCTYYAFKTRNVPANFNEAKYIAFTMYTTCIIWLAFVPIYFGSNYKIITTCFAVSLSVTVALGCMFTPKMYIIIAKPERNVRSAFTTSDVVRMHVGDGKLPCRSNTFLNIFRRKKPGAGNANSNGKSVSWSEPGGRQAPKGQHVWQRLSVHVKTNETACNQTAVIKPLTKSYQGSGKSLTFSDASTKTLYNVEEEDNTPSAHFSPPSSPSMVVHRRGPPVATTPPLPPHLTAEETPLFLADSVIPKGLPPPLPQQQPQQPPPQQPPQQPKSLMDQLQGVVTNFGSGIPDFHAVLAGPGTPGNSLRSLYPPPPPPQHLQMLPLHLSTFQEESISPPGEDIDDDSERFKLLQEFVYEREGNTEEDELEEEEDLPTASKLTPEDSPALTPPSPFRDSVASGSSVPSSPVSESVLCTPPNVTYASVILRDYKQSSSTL

Cc1onc(O)c1CC(N)C(=O)O (stereo not drawn) [AMPA, α-amino-3-hydroxy-5-methyl-isoxazole-4-propionic acid] was tested, and the “response relative to 100 μM L-glutamate” value [1, 4] was “ineffective”.

CN[C@H](CC(=O)O)C(=O)O [NMDA, N-methyl-D-aspartic acid] was tested, and the “response relative to 100 μM L-glutamate” value ([1]; 100 μM NMDA+10 μM glycine) was “ineffective”.

NC(CP(=O)(O)O)C(=O)O (racemic) [DL-AP3, 2-amino-3-phosphonopropionic acid] gave a remaining activity at 1000 µM [2] of 59.3 ± 7.3%.

With NC(CCP(=O)(O)O)C(=O)O (centres unmarked) [APB, 2-amino-4-phosphonobytyric acid] the “response relative to 100 μM L-glutamate” value [1, 4] was “ineffective”.

C=C(C)[C@H]1CN[C@H](C(=O)O)[C@H]1CC(=O)O [kainic acid] was tested, and the “response relative to 100 μM L-glutamate” value ([1]; 1 mM, saturating concentration) was “ineffective”.

For N[C@@H](Cn1oc(=O)[nH]c1=O)C(=O)O [Quisqualic acid, quisqualic acid], the “competitive binding to the glutamate receptor expressed by transfected BHK cells” value [3] was “able to competitively bind” and the “actual peak current in response to quisqualate (estimated from a digital panel meter)” value (GluG R) was “approximately 1300 nA”.

With N[C@@H](CC(=O)O)C(=O)O [aspartic acid] the “response relative to 100 μM L-glutamate” value ([1]; 1 mM, saturating concentration) was “ineffective”.
